Data: paper PMC5824344 (ACS Chemical Biology, 2017)
pIC50: −log10 of the molar value. “Also recorded” adds a separate entry of the source.

Columns and labels:
[1] = tested on: DENV2 strain 16681 in primary human MDMΦ; parameters: method as in PMID 23070155; settings: MDMΦ cells, same system; read-out: IC50 for DENV inhibition; cited from earlier work
[2] = tested on: DENV (serotype 2, strain 16681) in Huh7.5 cells; assay: DENV Huh7.5 antiviral assay (infectious titer by plaque assay); assay type: cell-based, dengue virus; settings: MOI 0.1, 48 h, titration of 4 or 50 µm of 3
Description: Supplemental Figure 3: Antiviral activity of 4 in human hepatoma Huh7.5 cell line.
(A) Huh7.5 cells were infected with DENV (serotype 2, strain 16681, multiplicity of infection = 0.1) and treated with a titration of ToP-DNJ 4 or 50 µm of tocopherol 3 for 48 h. Infectious virus titer was measured by plaque assay on LLC-MK2 cells. Counts were normalized to 100% for untreated samples.
DENV eﬀect at the concentrations tested. (B) Huh7.5 cells were infected with HCV (JFH-1, multiplicity of infection = 2) and treated with a titration of ToP-DNJ 4 or 50 µm tocopherol 3 for 96 h. Infectious virus titer was measured by TCID50 assay on […]
tested. In both panels, each data point represent the mean of triplicates, with error bars showing standard error of the mean (GraphPad Prism). […]
each well was scored as either positive (≥ 5 stained cells) or negative. TCID50 values were calculated according to the method of Reed and Muench.8 […]
The infectious DENV titres in supernatants collected were evaluated by plaque assay as described previously.9 Brieﬂy, LLC-MK2 cells were seeded in conﬂuent monolayers in a 12-well plate. Four 10-fold dilutions of each supernatant to be analyzed were prepared in minimum essential media (MEM, Gibco), supplemented with 100 µg mL−1 streptomycin, 100 U mL−1 penicillin and 10% (v/v) FCS. […]
After 1 d, plaques were observed and counted from the underside of the plate by eye. […]

[3] = Pharmacokinetics and biodistribution study in mice (IV and PO); assay type: in vivo, BALB/c mice
Description: Supplemental Figure 4: Mouse biodistribution of orally-administered 4. Mice were treated with a single dose of 4 by oral gavage (PO, 10 mg/kg). The mice were sacriﬁced at 30 min, 4 h, and 24 h after 4 administration, and the indicated tissues homogenized and analyzed for 4 by HPLC. While serum levels are much lower than […]
and kidney at 0.5 hours. At 4 and 24 h, as in the IV cohort, 4 remains at a higher concentration in the liver than in other tissues. Each data point represents the mean of 3 animals with error bars representing standard deviation (GraphPad Prism).
(also on this page, place not known: Serum Brain Liver Kidney Heart Spleen Lung 0 500 1000 1500 2000 Tissue h h (ng per g tissue) h 0.5 24 4)
(1 picture or pasted object on this page, not shown here)
The adherent monolayers were washed once with Hank’s buﬀered salt solution (Gibco), then inoculated with 100 µL of analyte and 100 µL of the supplemented MEM used to prepare the dilutions. The plates were rocked at 20 ◦C for 90 min, after which the inoculum was removed and nutrient-supplemented primary overlay (1 mL) was added to each well. The overlay was allowed to solidify at 20 ◦C, before returning the cells to the incubator. After 5 d, nutrient-supplemented, neutral red-containing secondary overlay (1 mL) was added to each well and allowed to solidify at 20 ◦C, then the cells were returned to the incubator.
After 1 d, plaques were observed and counted from the underside of the plate by eye.
5.10 Pharmacokinetics and Biodistribution Study
The study was carried out by Sai Life Science, Ltd. All procedures were in accordance with the guidelines provided by the Committee for the Purpose of Control and Supervisions of Experiments on Animals as published in The Gazette of India, December 15, 1998. Prior approval of the Institutional Animal Ethics Committee was obtained before initiation of the […]
18 healthy male BALB/c mice (8 – 12 weeks old) weighing between 20 and 35 g were procured from ACTREC, Mumbai, India. Illumination was controlled to give a cycle of 12 h light and 12 h dark. Temperature and humidity were recorded by an auto-controlled data logging system and maintained at 22± 3◦C and 55± 15% humidity, respectively. Animals were provided laboratory rodent diet (Vetcare India Pvt. Ltd.) and fresh reverse-osmosis, UV-treated water ad libitum. The mice were randomly divided into two groups. One group was treated with 4 intravenously (IV) at a dose of 2 mg/kg, while the other group was treated with an oral (per os, PO) dose of 10 mg/kg. The dosing volume was 5 mL/kg for IV treatment and 10 mL/kg for PO treatment. Blood samples were collected from three mice from each group under light isoﬂurane anaesthesia before dosing and at 0.25, 0.5, 1, 2, 4, 8 and 24 h after dosing. An additional blood sample was taken for the IV group at 0.08 h after dosing. After collection, potassium tetraethylenediamine was added to the sample as an anticoagulant. Plasma was immediately harvested by centrifugation and then stored at –70 ◦C until analysis. At 0.5, 4, and 24 h after dosing, 3 mice from each group

[4] = BALB/c mice, oral (PO, 10 mg/kg)
[5] = mice, single dose by oral gavage (PO, 10 mg/kg)

SMILES	pIC50 [1]	anti-DENV effect (infectious virus titer) [2]	change of amount present in the liver between the 4 and 24 h time points ([3]; BALB/c mice)	oral bioavailability ([3]; BALB/c mice)	maximum blood plasma concentration [3, 4] [nM]	time of maximum blood plasma concentration [3, 4] [h]	tissue in which compound was detected in the highest amounts ([3]; BALB/c mice, oral and intravenous administration)	half-life ([3]; male, mouse, plasma, BALB/c mice (Figure 3B), read-out: plasma terminal half-life (converted)) [h]	concentration in the liver relative to other tissues at 4 and 24 h [3, 5]	tissue levels at 0.5 hours [3, 5]
CCCCN1CC(O)C(O)C(O)C1CO [Compound 2, N-butyl-D-1-deoxynojirimycin, reference compound]	5.22									
Cc1c(C)c2c(c(C)c1OCCCCCN1CC(O)C(O)C(O)C1CO)CCC(C)(CCCC(C)CCCC(C)CCCC(C)C)O2 (stereo not shown) [Compound 4, 5′-tocopheroxypentyl-DNJ]		neither an anti-DENV nor anti-HCV effect was observed; also recorded: Neither 4 nor 3 showed an anti-	did not decrease	poor oral bioavailability	46	8	highest amounts in the liver	8.79	higher	high levels are achieved in the liver
